The nature of series [1]: collision cross section (TIMS, N2 drift gas) of the primary ion; higher = larger gas-phase ion size.
Series [2] is described as follows: reversed-phase LC retention time (C18, 15 min MeOH gradient); higher = more hydrophobic / later elution.
Setting [3] is: ionization mode: ESI-, ion species: [M-H]-.
The mark [4] stands for this setting: ionization mode: ESI+, ion species: [M]+.
The mark [5] stands for this setting: ionization mode: ESI+, ion species: [M+H]+.

Counter-ions that a name gives are not always drawn.

For the compound `CCCCCCCCCCCCCCOS(=O)(=O)O` [Tetradecylsulfate], the collision cross section in series [1] (setting [3]) is recorded as 175.12 Å². For the same compound, in series [2] (setting [3]), the “reversed-phase LC retention time” value came out at 17.2 min.

Compound `CCCCCCCCCCCCCC[N+](C)(C)C` [Tetradecyltrimethylammonium] yielded a collision cross section in series [1] (setting [4]) of 187.45 Å². Further, the “reversed-phase LC retention time” value in series [2] (setting [4]) was determined as 16.5 min.

As to `CC[N+](CC)(CC)CC` [Tetraethylammonium], the collision cross section in series [1] (setting [4]) is 123.33 Å². The “reversed-phase LC retention time” value in series [2] (setting [4]) is 1.03 min.

`COCCOCCOCCOCCOC` [Tetraglyme] displayed a collision cross section in series [1] (setting [5]) of 152.39 Å². In series [2] (setting [5]), the “reversed-phase LC retention time” value turned out to be 8.94 min.

`O=C1NC(=O)C2CC=CCC12` (stereo not given) [Tetrahydrophthalimide] gave a collision cross section in series [1] (setting [5]) of 130.01 Å². In addition, the “reversed-phase LC retention time” value in series [2] (setting [5]) was determined as 5.38 min.

In turn, `Cn1cnc2c1c(=O)[nH]c(=O)n2C` [Theobromine] showed a collision cross section in series [1] (setting [5]) of 130.33 Å². The “reversed-phase LC retention time” value in series [2] (setting [5]) is 5.81 min.

Turning to `Cn1c(=O)c2[nH]cnc2n(C)c1=O` [Theophyllin], the collision cross section in series [1] (setting [5]) is 135.99 Å². Besides, in series [2] (setting [5]), the “reversed-phase LC retention time” value turned out to be 6.64 min.

With `c1ccc2[nH]c(-c3cscn3)nc2c1` [Thiabendazole], the collision cross section in series [1] (setting [5]) amounted to 138.79 Å². Besides, in series [2] (setting [5]), the “reversed-phase LC retention time” value was found to be 8.08 min.

In turn, `NC(=O)/N=C1\SCCN1Cc1ccc(Cl)nc1` [Thiacloprid amide] returned a collision cross section in series [1] (setting [5]) of 159.22 Å². In addition, the “reversed-phase LC retention time” value in series [2] (setting [5]) is 8.75 min.

For the compound `N#C/N=C1/SCCN1Cc1ccc(Cl)nc1` [Thiacloprid], the results for the collision cross section in series [1] (setting [5]) and in series [1] (setting [3]) were 158.43 Å² and 153.51 Å², respectively. Besides, the “reversed-phase LC retention time” value is 9.94 min in series [2] (setting [5]) and 10 min in series [2] (setting [3]).

For the compound `O=c1[nH]nc(C(F)(F)F)s1` [Thiadone], the collision cross section in series [1] (setting [3]) is 115.69 Å². The “reversed-phase LC retention time” value in series [2] (setting [3]) was determined as 6.79 min.

In series [1] (setting [5]), `CN1COCN(Cc2cnc(Cl)s2)/C1=N/[N+](=O)[O-]` [Thiamethoxam] displayed a collision cross section of 159.96 Å². Moreover, the “reversed-phase LC retention time” value in series [2] (setting [5]) stood at 7.66 min.

In series [1] (setting [5]), `COP(=S)(OC)Oc1c(Cl)cc(C)cc1Cl` [Toclofos-methyl] yielded a collision cross section of 151.78 Å². Also, in series [2] (setting [5]), the “reversed-phase LC retention time” value was 15.8 min.

`Cc1c(Cl)cccc1Nc1ccccc1C(=O)O` [Tolfenamic acid]: the collision cross section stood at 156.85 Å² in series [1] (setting [5]) and 158.38 Å² in series [1] (setting [3]). The “reversed-phase LC retention time” value in series [2] (setting [5]) was 16.6 min; in series [2] (setting [3]), 14.2 min.

For `Cc1cccc(Nc2ccncc2S(=O)(=O)NC(=O)NC(C)C)c1` [Torasemide], the collision cross section in series [1] (setting [5]) amounted to 188.49 Å²; in series [1] (setting [3]), 184.59 Å². The “reversed-phase LC retention time” value stood at 11.5 min in series [2] (setting [5]) and 12.4 min in series [2] (setting [3]).

`COc1cccc([C@@]2(O)CCCC[C@@H]2CN(C)C)c1` [Tramadol] had a collision cross section in series [1] (setting [5]) of 160.98 Å². In addition, in series [2] (setting [5]), the “reversed-phase LC retention time” value is 9.25 min.

Regarding `CCCCOCCOP(=O)(OCCOCCCC)OCCOCCCC` [Tri(butoxyethyl)phosphate], in series [1] (setting [5]), the collision cross section is 198.12 Å². In addition, the “reversed-phase LC retention time” value in series [2] (setting [5]) was determined as 16.7 min.

In the case of `CC(C)COP(=O)(OCC(C)C)OCC(C)C` [Tri-isobutylphosphate], the collision cross section in series [1] (setting [5]) worked out at 165.01 Å². The “reversed-phase LC retention time” value in series [2] (setting [5]) was 16.3 min.

Turning to `CCCCOC(=O)CC(O)(CC(=O)OCCCC)C(=O)OCCCC` [Tri-n-butyl citrate], the collision cross section in series [1] (setting [5]) came to 203.87 Å². Moreover, the “reversed-phase LC retention time” value in series [2] (setting [5]) was found to be 16.5 min.

As to `CC(C)N(C(=O)SCC(Cl)=C(Cl)Cl)C(C)C` [Triallate], the collision cross section in series [1] (setting [5]) was determined as 162.33 Å². Also, the “reversed-phase LC retention time” value in series [2] (setting [5]) was found to be 17.2 min.

In turn, `CCCCN(CCCC)CCCC` [Tributylamine] gave a collision cross section in series [1] (setting [5]) of 148.84 Å². In addition, the “reversed-phase LC retention time” value in series [2] (setting [5]) turned out to be 10.1 min.

`COP(=O)(OC)C(O)C(Cl)(Cl)Cl` (stereo not given) [Trichlorfon]: the collision cross section in series [1] (setting [5]) turned out to be 138.18 Å². In addition, the “reversed-phase LC retention time” value in series [2] (setting [5]) was determined as 9.07 min.

For `O=C(Nc1ccc(Cl)cc1)Nc1ccc(Cl)c(Cl)c1` [Triclocarban], the figures for the collision cross section in series [1] (setting [5]) and in series [1] (setting [3]) were 173.98 Å² and 167.79 Å², respectively. Besides, the “reversed-phase LC retention time” value is 16.2 min in series [2] (setting [5]) and 16.6 min in series [2] (setting [3]).

For `Oc1cc(Cl)ccc1Oc1ccc(Cl)cc1Cl` [Triclosan], in series [1] (setting [3]), the collision cross section is 158.5 Å². Also, in series [2] (setting [3]), the “reversed-phase LC retention time” value worked out at 16.8 min.

`Cc1ccc(OP(=O)(Oc2ccc(C)cc2)Oc2ccc(C)cc2)cc1` [Tricresylphosphate] yielded a collision cross section in series [1] (setting [5]) of 190.01 Å². The “reversed-phase LC retention time” value in series [2] (setting [5]) was 17.2 min.

Regarding `CCOC(=O)CC(O)(CC(=O)OCC)C(=O)OCC` [Triethylcitrate], the collision cross section in series [1] (setting [5]) is on record as 159.4 Å². Besides, in series [2] (setting [5]), the “reversed-phase LC retention time” value came out at 11.8 min.

In series [1] (setting [5]), `CCCCOCCOCCOCCO` [Triethylene Glycol Monobutyl Ether] showed a collision cross section of 143.71 Å². Also, in series [2] (setting [5]), the “reversed-phase LC retention time” value turned out to be 11.2 min.

With `CCOP(=O)(OCC)OCC` [Triethylphosphate], the collision cross section in series [1] (setting [5]) came to 131.26 Å². The “reversed-phase LC retention time” value in series [2] (setting [5]) came out at 10.7 min.

With `CO/N=C(/C(=O)OC)c1ccccc1CO/N=C(\C)c1cccc(C(F)(F)F)c1` [Trifloxystrobin], in series [1] (setting [5]), the collision cross section worked out at 188.81 Å². In series [2] (setting [5]), the “reversed-phase LC retention time” value turned out to be 16.3 min.

The compound `O=S(=O)(O)C(F)(F)F` [Trifluoromethanesulfonic acid] came in with a collision cross section in series [1] (setting [3]) of 108.15 Å². Moreover, the “reversed-phase LC retention time” value in series [2] (setting [3]) came out at 1.37 min.

Regarding `COc1cc(Cc2cnc(N)nc2N)cc(OC)c1OC` [Trimethoprim], the collision cross section in series [1] (setting [5]) is listed as 173.75 Å². Further, in series [2] (setting [5]), the “reversed-phase LC retention time” value turned out to be 7.8 min.

These data come from the supplement of paper PMC12613149.
